# Measured values from PubChem BioAssay AID1963449 (Molecular Pharmacology Branch, DTP, NCI, 2024).
# Where “and” joins values, the source holds several entries; their conditions need not be identical. Equal values may be shown once.
# Tested on: 596521-263-R-J1-PDC complex spheroid growth
# Experiment: Anticancer human tumor 596521-263-R-J1-PDC patient-derived soft tissue sarcoma cell line growth inhibition [Asc]
# Details: for viability, T/C: stronger effect = lower value
# Outline: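 Complex solid-tumor spheroids incorporating human endothelial and mesenchymal stem cells received single agents or combinations over half-log dilution ranges anchored to clinical Cmax.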
# 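Also: spheroids exposed to compounds for 7 days.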
structure (smiles),measurement,setting,value
NC(=O)C(=Cn1cnc(-c2cc(C(F)(F)F)cc(C(F)(F)F)c2)n1)c1cncnc1 + CNC(C)C(=O)NC1CN(S(=O)(=O)c2cccc(S(=O)(=O)N3CCC4CCC(C(=O)NC(c5ccccc5)c5ccccc5)N4C(=O)C(NC(=O)C(C)NC)C3)c2)CCC2CCC(C(=O)NC(c3ccccc3)c3ccccc3)N2C1=O,IC50,"curve of first compound, second compound 0.00316 µM",20.4 nM
same,IC50,"curve of first compound, second compound 0.01 µM",25.6 nM
same,IC50,"curve of first compound, second compound 0.0316 µM",21.4 nM
same,IC50,"curve of first compound, second compound 0.1 µM",18.1 nM
same,IC50,"curve of first compound, second compound 0.316 µM",17.6 nM
same,IC50,"curve of first compound, second compound 1 µM",12.5 nM
same,"viability, T/C","second compound 0.00316 µM, first compound 0.000949 µM",99.8%
same,"viability, T/C","second compound 0.00316 µM, first compound 0.003 µM",94.3%
same,"viability, T/C","second compound 0.00316 µM, first compound 0.00949 µM",67.1%
same,"viability, T/C","second compound 0.00316 µM, first compound 0.03 µM",42.8%
same,"viability, T/C","second compound 0.00316 µM, first compound 0.0949 µM",16.1%
same,"viability, T/C","second compound 0.00316 µM, first compound 0.3 µM",10.4%
same,"viability, T/C","second compound 0.01 µM, first compound 0.000949 µM",101%
same,"viability, T/C","second compound 0.01 µM, first compound 0.003 µM",101%
same,"viability, T/C","second compound 0.01 µM, first compound 0.00949 µM",84.3%
same,"viability, T/C","second compound 0.01 µM, first compound 0.03 µM",44.9%
same,"viability, T/C","second compound 0.01 µM, first compound 0.0949 µM",14.8%
same,"viability, T/C","second compound 0.01 µM, first compound 0.3 µM",9.7%
same,"viability, T/C","second compound 0.0316 µM, first compound 0.000949 µM",102%
same,"viability, T/C","second compound 0.0316 µM, first compound 0.003 µM",93.7%
same,"viability, T/C","second compound 0.0316 µM, first compound 0.00949 µM",75.8%
same,"viability, T/C","second compound 0.0316 µM, first compound 0.03 µM",38.6%
same,"viability, T/C","second compound 0.0316 µM, first compound 0.0949 µM",18.7%
same,"viability, T/C","second compound 0.0316 µM, first compound 0.3 µM",10.5%
same,"viability, T/C","second compound 0.1 µM, first compound 0.000949 µM",93.6%
same,"viability, T/C","second compound 0.1 µM, first compound 0.003 µM",89.4%
same,"viability, T/C","second compound 0.1 µM, first compound 0.00949 µM",67.5%
same,"viability, T/C","second compound 0.1 µM, first compound 0.03 µM",35.6%
same,"viability, T/C","second compound 0.1 µM, first compound 0.0949 µM",14.6%
same,"viability, T/C","second compound 0.1 µM, first compound 0.3 µM",5.92%
same,"viability, T/C","second compound 0.316 µM, first compound 0.000949 µM",95.3%
same,"viability, T/C","second compound 0.316 µM, first compound 0.003 µM",76.8%
same,"viability, T/C","second compound 0.316 µM, first compound 0.00949 µM",71.3%
same,"viability, T/C","second compound 0.316 µM, first compound 0.03 µM",33.8%
same,"viability, T/C","second compound 0.316 µM, first compound 0.0949 µM",14.4%
same,"viability, T/C","second compound 0.316 µM, first compound 0.3 µM",6.61%
same,"viability, T/C","second compound 1 µM, first compound 0.000949 µM",85.8%
same,"viability, T/C","second compound 1 µM, first compound 0.003 µM",81.8%
same,"viability, T/C","second compound 1 µM, first compound 0.00949 µM",56.1%
same,"viability, T/C","second compound 1 µM, first compound 0.03 µM",27.3%
same,"viability, T/C","second compound 1 µM, first compound 0.0949 µM",11.2%
same,"viability, T/C","second compound 1 µM, first compound 0.3 µM",7.61%
O=C(c1ccc(F)c(F)c1Nc1ccc(I)cc1F)N1CC(O)([C@@H]2CCCCN2)C1,"viability, T/C",compound 0.00316 µM,107% and 99.7% and 89.7%
same,"viability, T/C",compound 0.01 µM,95.2% and 94.7% and 92%
same,"viability, T/C",compound 0.0316 µM,98.4% and 88.8% and 92.9%
same,"viability, T/C",compound 0.1 µM,75.9% and 77.3% and 84.2%
same,"viability, T/C",compound 0.316 µM,50.1% and 56% and 54.9%
same,"viability, T/C",compound 1 µM,34.9% and 49.8% and 34%
same,IC50,curve of compound,314 nM and 867 nM and 412 nM
O=C(c1cc(Cc2n[nH]c(=O)c3ccccc23)ccc1F)N1CCN(C(=O)C2CC2)CC1,"viability, T/C",compound 0.0316 µM,102% and 103% and 85.9%
same,"viability, T/C",compound 0.1 µM,101% (2×) and 93.1%
same,"viability, T/C",compound 0.316 µM,94.2% and 92.7% and 111%
same,"viability, T/C",compound 1 µM,90.9% and 103% and 93.6%
same,"viability, T/C",compound 3.16 µM,89.6% and 92.4% and 71.7%
same,"viability, T/C",compound 10 µM,59.9% and 61.9% and 50.4%
same,IC50,curve of compound,> 10000 nM
